Test system: Caenorhabditis elegans
Test: C. elegans L1 nematicidal dose response in 96-well plates, 5 day visual score (Example 2; same procedure for Example 7, Table 3)
Assay type: in vivo
Design: key to 5 Day Visual Score V1 / 5 Day Visual Score V2 / 5 Day Visual Score V3 / 5 Day Visual Score V4 / 5 Day Visual Score V6 / 5 Day Visual Score V5 / Initial HTS Run Visual Score / Follow-up HTS Run Visual Score: Dead: only stiff L1s (no movement); Dead (L4): worms are dead, but at a later larval stage; majority of worms are L1 (based on size) worms move when plate is tapped; majority of worms are L2 (based on size); majority of worms are L3 (based on size); majority of worms are L4 (based on size); AD: majority of worms are adult; #AD: 5 adult worms or less; B!: sterile (0-25 progeny); B: low broodsize (25-100 progeny); ˜B: moderate broodsize (100-250 progeny); <: reduced broodsize (250-500 progeny); OK: no effect (˜1000+ progeny)
Experimental: Caenorhabditis elegans adults were grown on Nematode Growth Medium (NGM) until they produced eggs, then the adults were removed.
The eggs were allowed to hatch, and the L1 larvae collected. See The Nematode Caenorhabditis elegans (1988) Cold Spring Harbor Laboratory Press. Using a Matrix Programmable Pipette, the L1s were distributed into 96-well tissue culture plates, 20 L1 in 50 μl NGM per well. Antibiotic/Antimyoticwas added to each well, and 1% by weight E. coli strain HB101. The subject anthelmintic compounds were stored at 5 mM in 100% DMSO. 0.7 μl of compounds 1-31 were added to the left-most column of wells to yield a final concentration of 70 μM in 1.4% DMSO, with 1.4% DMSO only as the control. The compounds were then subjected to 5 more 3-fold dilutions from left to right to yield 6 column concentrations of 70 μM, 23.3 μM, 7.8 μM, 2.6 μM, 0.9 μM, and 0.3 μM. Plates were stored in air-tight Rubbermaid plastic boxes at 20° C. The nematodes had cleared all control wells by day 4, and nematode viability was scored by visual examination under a 100× dissecting microsope on day 5. A visual viability scoring system was used as follows:
Column V1 has a compound concentration of 70 μM with sequential 3-fold dilutions reported in columns V2, V3, V4, V5, and V6, respectively, such that the V6 concentration was 0.3 μM.
The nematicidal activity of anthelmintic Compositions 48-168 were determined in accordance with the procedure outlined in Example 2.

[1] = dose response, dilution V1, 5 day
[2] = dose response, dilution V2, 5 day
[3] = dose response, dilution V4, 5 day
[4] = dose response, dilution V5, 5 day
[5] = dose response, dilution V6, 5 day
[6] = dose response, dilution V1, day 5
[7] = dose response, dilution V3, day 5
[8] = dose response, dilution V4, day 5
[9] = dose response, dilution V5, day 5
[10] = dose response, dilution V6, day 5
[11] = 0.3 μM, C. elegans L1, scored day 5
[12] = 0.9 μM, C. elegans L1, scored day 5
[13] = 2.6 μM, C. elegans L1, scored day 5
[14] = 7.8 μM, C. elegans L1, scored day 5
[15] = 23.3 μM, C. elegans L1, scored day 5
[16] = 70 μM, C. elegans L1, scored day 5
[17] = dose response, dilution V2, day 5

SMILES | Follow-up HTS Run % Run [%] | Follow-up HTS Run mOD [mOD] | Initial HTS Run % Run [%] | Initial HTS Run Visual Score | Initial HTS Run mOD [mOD] | 5 Day Visual Score V4 [3] | 5 Day Visual Score V5 [4] | 5 Day Visual Score V6 [5] | Follow-up HTS Run Visual Score | 5 Day Visual Score V1 [6] | 5 Day Visual Score V3 [7] | 5 Day Visual Score V4 [8] | 5 Day Visual Score V5 [9] | 5 Day Visual Score V6 [10] | 5 Day Visual Score V2 [15] | 5 Day Visual Score V1 [16] | also measured
C=CCN(CC=C)c1nc(NCc2ccccc2)ns1 [compound 327] | 106 | 171 | 105 | L2/L3(Dead L3) | 115 | OK (no effect (˜1000+ progeny)) | OK (no effect (˜1000+ progeny)) | OK (no effect (˜1000+ progeny)) | – | – | – | – | – | – | – | – | 5 Day Visual Score V1 [1]: Dead; 5 Day Visual Score V2 [2]: B (low broodsize (25-100 progeny)); 5 Day Visual Score V3 (dose response, dilution V3, 5 day): ˜B (moderate broodsize (100-250 progeny))
CCCCN(CCCCO)c1nc(N2CCN(c3c(C)cccc3C)CC2)ns1 [compound 220] | 75 | 121 | 95 | 1AD/B! | 105 | – | – | – | Dead | Dead | ˜B (moderate broodsize (100-250 progeny)) | OK (no effect (˜1000+ progeny)) | OK (no effect (˜1000+ progeny)) | OK (no effect (˜1000+ progeny)) | – | – | –
CCCCCCCCCCCCCCCCCCN(C)c1nc(NC2CCCCCCCCCCC2)ns1 [compound 330] | 56 | 90 | 107 | Dead (L2/L3) | 118 | OK (no effect (˜1000+ progeny)) | OK (no effect (˜1000+ progeny)) | OK (no effect (˜1000+ progeny)) | Dead | – | – | – | – | – | – | – | 5 Day Visual Score V1 [1]: Dead; 5 Day Visual Score V2 [2]: Dead
O=C(NCCc1ccccc1F)C1C(c2ccccc2Cl)=NOC1c1ccc(-c2ccccc2)cc1 (centres unmarked) [AKC 110] | – | – | – | – | – | – | – | – | – | – | – | – | – | – | L1 | L1 | 5 Day Visual Score V6 [11]: L1; 5 Day Visual Score V5 [12]: L1; 5 Day Visual Score V4 [13]: L1; 5 Day Visual Score V3 [14]: L1
Cc1cccc(C)c1N1CCN(c2nc(NC3CCCCCCCCCCC3)ns2)CC1 [compound 329] | 78 | 125 | 100 | Dead (L2/L3) | 110 | OK (no effect (˜1000+ progeny)) | OK (no effect (˜1000+ progeny)) | OK (no effect (˜1000+ progeny)) | Dead | – | – | – | – | – | – | – | 5 Day Visual Score V1 [1]: Dead; 5 Day Visual Score V2 [2]: Dead
Cc1cccc(C)c1N1CCN(c2nc(NCCc3ccc(Oc4ccccc4)cc3)ns2)CC1 [compound 269] | 132 | 212 | 166 | L4/1AD/B | 183 | – | – | – | L4/AD/B | Dead | OK (no effect (˜1000+ progeny)) | OK (no effect (˜1000+ progeny)) | OK (no effect (˜1000+ progeny)) | OK (no effect (˜1000+ progeny)) | – | – | –
Cc1ccc(C(CC(=O)c2ccccc2)Nc2ccc(I)cc2F)o1 (centres unmarked) [AKC 129] | – | – | – | – | – | – | – | – | – | – | – | – | – | – | Dead | Dead | 5 Day Visual Score V5 [12]: OK (no effect (˜1000+ progeny))
CCCCCCCCCCNc1nsc(N(CC)Cc2ccccc2)n1 [compound 280] | 122 | 196 | 144 | Dead | 158 | – | – | – | Dead | Dead | ˜B (moderate broodsize (100-250 progeny)) | OK (no effect (˜1000+ progeny)) | OK (no effect (˜1000+ progeny)) | OK (no effect (˜1000+ progeny)) | – | – | 5 Day Visual Score V2 [17]: Dead
C=CCN(CC=C)c1nc(NCc2ccccc2C(F)(F)F)ns1 [compound 321] | 116 | 186 | 95 | Dead/2L2 | 105 | OK (no effect (˜1000+ progeny)) | OK (no effect (˜1000+ progeny)) | OK (no effect (˜1000+ progeny)) | – | – | – | – | – | – | – | – | –
CCCCCCCCCCNc1nsc(N(C)CCc2ccc(OC)c(OC)c2)n1 [compound 285] | 131 | 211 | 149 | Dead | 164 | – | – | – | Dead | Dead | – | ˜B (moderate broodsize (100-250 progeny)) | OK (no effect (˜1000+ progeny)) | OK (no effect (˜1000+ progeny)) | – | – | 5 Day Visual Score V2 [17]: Dead
Cc1cccc(C)c1N1CCN(c2nsc(N(CC(C)C)CC(C)C)n2)CC1 [compound 231] | 65 | 105 | 119 | 2AD/B | 131 | – | – | – | 2AD/B | Dead | < (reduced broodsize (250-500 progeny)) | OK (no effect (˜1000+ progeny)) | OK (no effect (˜1000+ progeny)) | OK (no effect (˜1000+ progeny)) | – | – | 5 Day Visual Score V2 [17]: Dead
Fc1ccc(N2CCN(c3nc(NCCC(c4ccccc4)c4ccccc4)ns3)CC2)cc1 [AKC 134] | – | – | – | – | – | – | – | – | – | – | – | – | – | – | Dead | Dead | 5 Day Visual Score V6 [11]: OK (no effect (˜1000+ progeny)); 5 Day Visual Score V3 [14]: Dead
O=C(NCC1CCC(c2nc(-c3ccccc3)no2)CC1)Nc1ccc(OC(F)(F)F)cc1 (centres unmarked) [AKC 113] | – | – | – | – | – | – | – | – | – | – | – | – | – | – | Dead | Dead | 5 Day Visual Score V6 [11]: L4/#AD/B; 5 Day Visual Score V4 [13]: Dead(L2/L; 5 Day Visual Score V3 [14]: Dead

Source: US20020002171A1, “Materials and methods for killing nematodes and nematode eggs” (priority 2000, published 2002)
